Key:
Dectin-1 = target: T1, Dectin-1 (Homo sapiens, UniProt Q9BXN2); assay: Sugar competition EIA, Fc.Dectin-1 binding to GLPS-F3; conditions: sugar 1 mg/ml
T1 construct: The extracellular domains of lectin receptors, TREMs and TLTs were cloned by the reverse-transcriptase polymerase chain reaction (RT-PCR); made in house; host or cells: 293-F (FreeStyle 293) cells
T1 sequence (Q9BXN2 66-247 limits assumed): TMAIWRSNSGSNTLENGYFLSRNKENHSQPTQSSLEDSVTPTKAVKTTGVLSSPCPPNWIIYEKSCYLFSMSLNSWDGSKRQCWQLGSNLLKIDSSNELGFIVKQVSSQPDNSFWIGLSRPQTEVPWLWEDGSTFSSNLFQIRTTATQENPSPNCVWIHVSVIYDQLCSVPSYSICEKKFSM
Method: (§1) The interaction between GLPS-F3 and receptor.Fc was then tested. Unbiotinylated GLPS-F3 was immobilized at 100 ng/well as described above, and 100 μL receptor.Fc fusion protein (1 μg/ml in 2 mM MgCl2/2 mM CaCl2/1% BSA/TBST) was added into each well and incubated for 1 hour at room temperature. After washing with TBST, wells were incubated with peroxidase-conjugated goat anti-human IgG Ab (1:5000 dilution, Jackson ImmunoResearch Laboratories) in blocking buffer at room temperature for 30 min. Wells were incubated with 100 μL TMB substrate for 15 min after TBST washing and read at 450 nm in a Fusion plate reader (Perkin Elmer). The results were normalized with respect to Fc.Dectin-1 binding (Dectin-1 is a known lectin receptor that binds to β-1,3-glucan which is the backbone found in GLPS-F3). FIG. 6B depicts in graphical form the affinity of each receptor for GLPS-F3 relative to Dectin-1. […] There was also weaker but positive GLPS-F3 binding ability (25-50% binding intensity compared to Fc.dectin-1) found in Fc.NKG2D, Fc.MINCLE, Fc.mKCR, DCAL1.Fc, DEC205.Fc, Endo180.Fc and NKp30(NCR3).Fc.
(§2) To understand the interaction of GLPS-F3 with specific innate immunity receptors, the polysaccharides mannan and β-glucan and the monosaccharides D-mannose (Man), D-glucose (Glc), N-acetyl-glucosamine (GlcNAc), D-galactose (Gal), N-acetyl-galactosamine (GalNAc), L-fucose (Fuc) and sialic acid, were used in a competition assay. […] The assays were carried out as in Example 9, with the addition of 1 mg/ml of each polysaccharide or monosaccharide.

Langerin = target: T2, Langerin (Homo sapiens, UniProt Q9UJ71); assay: Sugar competition EIA, Fc.Langerin binding to GLPS-F3; conditions: sugar 1 mg/ml
T2 construct: The extracellular domains of lectin receptors, TREMs and TLTs were cloned by the reverse-transcriptase polymerase chain reaction (RT-PCR); made in house; host or cells: 293-F (FreeStyle 293) cells
T2 sequence (Q9UJ71 65-328 limits assumed): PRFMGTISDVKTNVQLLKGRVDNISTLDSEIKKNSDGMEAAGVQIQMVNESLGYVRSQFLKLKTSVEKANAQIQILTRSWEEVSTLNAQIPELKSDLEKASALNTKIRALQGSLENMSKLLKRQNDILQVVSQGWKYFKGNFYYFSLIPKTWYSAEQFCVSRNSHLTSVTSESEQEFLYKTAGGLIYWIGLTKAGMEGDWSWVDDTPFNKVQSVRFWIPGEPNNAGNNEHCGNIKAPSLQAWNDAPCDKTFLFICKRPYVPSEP
Method: as §1, §2

DC-SIGN = target: T3, DC-SIGN (Homo sapiens, UniProt Q9NNX6); assay: Sugar competition EIA, Fc.DC-SIGN binding to GLPS-F3; conditions: sugar 1 mg/ml
T3 construct: The extracellular domains of lectin receptors, TREMs and TLTs were cloned by the reverse-transcriptase polymerase chain reaction (RT-PCR); made in house; host or cells: 293-F (FreeStyle 293) cells
T3 sequence (Q9NNX6 59-404 limits assumed): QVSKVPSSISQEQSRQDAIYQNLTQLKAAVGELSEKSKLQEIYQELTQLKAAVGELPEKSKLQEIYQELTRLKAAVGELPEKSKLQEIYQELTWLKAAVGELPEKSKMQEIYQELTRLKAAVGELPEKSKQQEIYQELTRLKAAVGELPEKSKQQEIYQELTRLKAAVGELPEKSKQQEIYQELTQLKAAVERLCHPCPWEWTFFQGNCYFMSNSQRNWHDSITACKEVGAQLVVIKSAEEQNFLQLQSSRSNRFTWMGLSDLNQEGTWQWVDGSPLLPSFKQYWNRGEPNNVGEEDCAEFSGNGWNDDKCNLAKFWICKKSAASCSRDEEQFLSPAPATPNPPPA
Method: as §1, §2

TLR4.Fc = target: T4, TLR4.Fc (Homo sapiens, UniProt O00206); assay: Sugar competition EIA, TLR4.Fc binding to GLPS-F3; conditions: sugar 1 mg/ml
T4 construct: The extracellular domains of several innate immunity receptors from immune cells were cloned by reverse-transcription polymerase chain reaction (RT-PCR); made in house; host or cells: 293-F (FreeStyle 293) cells
T4 sequence (O00206 24-631 limits assumed): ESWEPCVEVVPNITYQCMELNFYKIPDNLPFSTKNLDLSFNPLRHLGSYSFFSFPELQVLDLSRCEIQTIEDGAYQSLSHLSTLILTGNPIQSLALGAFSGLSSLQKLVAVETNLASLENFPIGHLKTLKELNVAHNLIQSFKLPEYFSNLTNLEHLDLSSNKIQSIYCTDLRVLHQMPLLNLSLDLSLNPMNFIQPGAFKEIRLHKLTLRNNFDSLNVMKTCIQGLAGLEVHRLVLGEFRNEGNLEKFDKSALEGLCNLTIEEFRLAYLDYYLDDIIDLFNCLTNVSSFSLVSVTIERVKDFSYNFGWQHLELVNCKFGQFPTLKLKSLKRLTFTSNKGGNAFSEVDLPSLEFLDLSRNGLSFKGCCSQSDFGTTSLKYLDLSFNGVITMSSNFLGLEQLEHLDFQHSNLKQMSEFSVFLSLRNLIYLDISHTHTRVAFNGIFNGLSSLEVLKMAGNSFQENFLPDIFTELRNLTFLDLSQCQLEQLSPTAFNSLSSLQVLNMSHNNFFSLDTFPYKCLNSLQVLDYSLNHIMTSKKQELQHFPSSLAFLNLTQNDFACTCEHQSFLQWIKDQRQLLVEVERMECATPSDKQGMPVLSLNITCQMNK
Method: as §1, §2

MMR.Fc = target: T5, MMR.Fc (Homo sapiens, UniProt P22897); assay: Sugar competition EIA, MMR.Fc binding to GLPS-F3; conditions: sugar 1 mg/ml
T5 construct: The extracellular domains of lectin receptors, TREMs and TLTs were cloned by the reverse-transcriptase polymerase chain reaction (RT-PCR); made in house; host or cells: 293-F (FreeStyle 293) cells
T5 sequence (P22897 19-1389 limits assumed): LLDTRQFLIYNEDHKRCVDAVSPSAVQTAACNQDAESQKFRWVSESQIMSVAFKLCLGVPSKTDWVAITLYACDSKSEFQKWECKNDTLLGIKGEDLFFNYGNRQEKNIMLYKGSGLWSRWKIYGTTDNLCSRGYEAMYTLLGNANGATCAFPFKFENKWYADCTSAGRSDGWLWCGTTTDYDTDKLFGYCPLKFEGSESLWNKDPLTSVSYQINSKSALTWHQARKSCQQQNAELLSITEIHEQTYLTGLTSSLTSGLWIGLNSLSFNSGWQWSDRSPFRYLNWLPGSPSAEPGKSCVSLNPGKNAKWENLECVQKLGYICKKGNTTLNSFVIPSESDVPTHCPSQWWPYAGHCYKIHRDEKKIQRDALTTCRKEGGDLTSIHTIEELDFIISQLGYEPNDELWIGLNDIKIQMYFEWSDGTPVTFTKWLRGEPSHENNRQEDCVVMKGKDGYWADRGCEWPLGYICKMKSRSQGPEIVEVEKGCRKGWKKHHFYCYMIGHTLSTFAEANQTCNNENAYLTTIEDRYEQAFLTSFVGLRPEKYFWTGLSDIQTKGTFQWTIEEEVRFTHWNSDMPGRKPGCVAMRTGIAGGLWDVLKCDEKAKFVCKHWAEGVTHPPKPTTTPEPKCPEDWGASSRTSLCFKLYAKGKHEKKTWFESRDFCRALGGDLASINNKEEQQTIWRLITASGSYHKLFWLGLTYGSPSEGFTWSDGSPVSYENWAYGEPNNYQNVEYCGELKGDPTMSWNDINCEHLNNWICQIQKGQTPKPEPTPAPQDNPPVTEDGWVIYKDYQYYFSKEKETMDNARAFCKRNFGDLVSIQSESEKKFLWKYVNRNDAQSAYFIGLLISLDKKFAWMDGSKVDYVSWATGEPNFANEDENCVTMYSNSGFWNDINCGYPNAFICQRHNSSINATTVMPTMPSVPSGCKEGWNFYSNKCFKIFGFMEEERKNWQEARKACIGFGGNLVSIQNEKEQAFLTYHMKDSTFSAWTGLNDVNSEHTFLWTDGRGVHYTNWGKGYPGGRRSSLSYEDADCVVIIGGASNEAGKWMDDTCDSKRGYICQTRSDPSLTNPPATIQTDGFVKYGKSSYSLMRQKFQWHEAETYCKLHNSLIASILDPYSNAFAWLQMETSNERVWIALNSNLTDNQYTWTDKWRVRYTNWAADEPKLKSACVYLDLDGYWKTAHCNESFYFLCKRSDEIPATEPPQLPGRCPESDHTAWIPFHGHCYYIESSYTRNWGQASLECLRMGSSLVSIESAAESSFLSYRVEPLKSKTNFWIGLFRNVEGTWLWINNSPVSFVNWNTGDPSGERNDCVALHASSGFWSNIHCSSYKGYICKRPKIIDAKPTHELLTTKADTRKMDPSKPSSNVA
Method: as §1, §2

CLEC-2 = target: T6, CLEC-2 (Homo sapiens, UniProt Q9P126); assay: Sugar competition EIA, Fc.CLEC-2 binding to GLPS-F3; conditions: sugar 1 mg/ml
T6 construct: The extracellular domains of lectin receptors, TREMs and TLTs were cloned by the reverse-transcriptase polymerase chain reaction (RT-PCR); made in house; host or cells: 293-F (FreeStyle 293) cells
T6 sequence (Q9P126 55-229 limits assumed): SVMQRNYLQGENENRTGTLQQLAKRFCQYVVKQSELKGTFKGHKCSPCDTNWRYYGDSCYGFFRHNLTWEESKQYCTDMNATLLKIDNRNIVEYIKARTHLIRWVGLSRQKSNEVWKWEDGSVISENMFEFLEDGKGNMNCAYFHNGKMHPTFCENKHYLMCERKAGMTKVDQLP
Method: as §1, §2

CLEC-6 = target: T7, CLEC-6 (Homo sapiens, UniProt Q8WXI8); assay: Sugar competition EIA, Fc.CLEC-6 binding to GLPS-F3; conditions: sugar 1 mg/ml
T7 construct: The extracellular domains of lectin receptors, TREMs and TLTs were cloned by the reverse-transcriptase polymerase chain reaction (RT-PCR); made in house; host or cells: 293-F (FreeStyle 293) cells
T7 sequence (Q8WXI8 39-215 limits assumed): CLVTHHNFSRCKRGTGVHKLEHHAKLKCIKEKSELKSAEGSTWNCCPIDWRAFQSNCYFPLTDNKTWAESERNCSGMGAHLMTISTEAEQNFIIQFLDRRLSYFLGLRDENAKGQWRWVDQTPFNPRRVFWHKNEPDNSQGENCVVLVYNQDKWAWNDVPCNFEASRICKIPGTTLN
Method: as §1, §2

Dectin-1.Fc = target: T8, Dectin-1.Fc (Homo sapiens, UniProt Q9BXN2); assay: Immunosorbent dot binding assay with Dectin-1.Fc; conditions: competitor 0.1 μg-1000 μg, or EDTA 10 mM in TBST
T8 construct: The extracellular domains of lectin receptors, TREMs and TLTs were cloned by the reverse-transcriptase polymerase chain reaction (RT-PCR); made in house; host or cells: 293-F (FreeStyle 293) cells
T8 sequence (Q9BXN2 66-247 limits assumed): T1 sequence (Q9BXN2 66-247 limits assumed)

Row | Percentage of binding of Dectin-1 Fc fusion to GLPS-F3 relative to binding in absence of sugar competitor (Dectin-1) [%] | Percentage of binding of Langerin Fc fusion to GLPS-F3 relative to binding in absence of sugar competitor (Langerin) [%] | inhibition of interaction between Fc.Langerin and GLPS-F3 (Langerin) [%] | Percentage of binding of DC-SIGN Fc fusion to GLPS-F3 relative to binding in absence of sugar competitor (DC-SIGN) [%] | Percentage of binding of MMR.Fc to GLPS-F3 relative to binding in absence of sugar competitor (MMR.Fc) [%] | Percentage of binding of CLEC-2 Fc fusion to GLPS-F3 relative to binding in absence of sugar competitor (CLEC-2) [%] | Percentage of binding of CLEC-6 Fc fusion to GLPS-F3 relative to binding in absence of sugar competitor (CLEC-6) [%] | Structure (SMILES) | inhibition of binding of Fc.DC-SIGN to GLPS-F3 (DC-SIGN) [%] | Percentage of binding of TLR4.Fc to GLPS-F3 relative to binding in absence of sugar competitor (TLR4.Fc) [%] | inhibition of interaction between GLPS-F3 and MMR.Fc (MMR.Fc) [%] | inhibition of the interaction between Dectin-1.Fc and F3 (Dectin-1.Fc)
1 | 91 ± 2.6 | 16 ± 2.7 | 84 | 73 ± 8.6 | 22 ± 3.4 | 103 ± 10.2 | 99 ± 8.5 | CC(=O)N[C@H]1C(O)O[C@H](CO)[C@@H](O)[C@@H]1O (some centres unmarked) [GlcNAc, N-acetyl-glucosamine] | 27 | 99 ± 4.7 | 78 | –
2 | – | – | – | – | – | – | – | O=C[C@H](O)[C@@H](O)[C@H](O)[C@H](O)CO [Glc, D-glucose] | 45 | 101 ± 4.7 | 45 | not
